“Also recorded” adds a separate entry of the source.
Assays:
832/13 cells [1] = experiment: Glucose-stimulated insulin secretion (GSIS) in 832/13 cells, insulin ELISA; type: cell-based, rat
Experimental: 832/13 cells were grown in 12-well plates and treated as indicated. Glucose-stimulated insulin secretion (GSIS) assays were performed as described previously (29). Insulin secretion by cell lines into the media was measured using either the High Range Rat Insulin ELISA kit (Mercodia, Uppsala, Sweden) or by rat islets using the insulin radioimmunoassay (Siemens, Malvern, Pa.) according to the company directions. In addition, cells were lysed using M-PER lysis reagent (Thermo Fisher Scientific) to quantify total intracellular protein content via BCA assay (Thermo Fisher Scientific). Insulin secretion data were normalized to total protein to account for any differences in cell number between treatment groups. Incorporation of tritiated thymidine into DNA as a cellular index of proliferation was carried out as described (45).

CCL2 = CCL2 secretion into media of 832/13 cells, ELISA; type: cell-based, rat; conditions: 1 ng/ml IL-1β + 1 mM I-NMMA, 6 h
Experimental: (§1) 832/13 cells were grown in 12-well plates and treated as indicated. RPMI was supplemented with 0.3% BSA, and media were collected at the indicated time points. In addition, the cells were lysed using M-PER lysis reagent (Thermo Fisher Scientific) to quantify total intracellular protein content. CCL2 and CCL20 secretion into the media was measured by CCL2 Quantikine ELISA kit (R & D Systems, Minneapolis, Minn.) and CCL20 DuoSet ELISA kit (R & D Systems) according to the manufacturer's protocol. ELISA data were normalized to total protein to account for any differences in cell number between treatment groups.

CCL20 = CCL20 secretion into media of 832/13 cells, ELISA; type: cell-based, rat; conditions: 1 ng/ml IL-1β + 1 mM I-NMMA, 6 h
Experimental: as §1

832/13 cells [2] = experiment: Nitrite accumulation in culture media, Griess assay; type: cell-based, rat; conditions: 832/13 cells, 1 ng/ml IL-1β 18 h
Experimental: (§2) Nitrite in the cell culture media was measured as an index of NO production using the Griess assay kit (Promega, Madison, Wis.), whereas cellular reduction of the 3-(4,5-dimethylthiazol-2-yl)-5-(3-carboxymethoxyphenyl)-2-(4-sulfophe-nyl)-2H-tetrazohum, inner salt (MTS) dye was determined using the MTS 1 solution kit (Promega) according to the manufacturer's protocol.

832/13 cells [3] = experiment: Nitric oxide by EPR spectroscopy with (MGD)2Fe2+ spin trap; type: cell-based, rat; conditions: 1 ng/ml IL-1β 18 h
Experimental: The spin trap Af-methyl-d-glucamine dithiocarbamate-iron complex [(MGD)2-Fe^2+] was prepared fresh in each experiment by making stock solutions of 500 mM MGD and 100 mM Fe^2+ (from FeS04.7 H20) in ultrapure water under anaerobic conditions. A final concentration of 25 mM MGD and 5 mM Fe^2+ was introduced onto cells in culture using serum-free media with a 30-min incubation period. Supernatants were then collected for the measurements of the (MGD)2-iron-NO complex. All electron paramagnetic resonance (EPR) measurements were carried out in a quartz flat cell at room temperature. Samples were transferred directly into the flat cell, which was then placed into the cavity of a Bruker EMX Plus spectroscope. Typical instrumental conditions were as follows: 20 mW of microwave power, 5.0-G modulation amplitude, 1×10^5 gain, 0.163-s time constant, and 80-G scan range. Quantitation was carried out by measuring and comparing the first peak heights on the spectra.

832/13 cells [4] = experiment: MTS dye reduction assay; type: cell-based, rat; conditions: 1 ng/ml IL-1β + 1 mM I-NMMA, 18 h
Experimental: as §2

832/13 cells [5] = experiment: Oxygen consumption rate (Seahorse XF24); type: cell-based, rat; conditions: 1 ng/ml IL-1β + 1 mM I-NMMA, 18 h
Experimental: Oxygen consumption rates (OCR) were measured using the XF^24 Extracellular Flux Analyzer (Seahorse Bioscience, Chicopee, Mass.). 832/13 cells were grown on cell culture plates for 2 days prior to OCR assays being run. Cells were treated with vehicle, 1 ng/ml IL-β, 1 mM I-NMMA, or both IL-1β (1 ng/ml) plus I-NMMA (1 mM) for 18 h prior to OCR being measured. The oxygen consumption rate was measured over a 2-h period. Data represent the calculated average area under the curve from six wells per treatment group over multiple independent experiments.

832/13 cells [6] = experiment: Live cell calcium imaging, glucose-induced calcium response (Calcium Green); type: cell-based, rat
Experimental: 832/13 cells were plated into six-well plates containing poly-d-lysine-coated coverslips (Neuvitro, Vancouver, Wash.). At 50% confluence, cells were treated for 18 h with one of four experimental groups: 1 ng/ml […] alone, 1 mM I-NMMA alone, IL-1β+ I-NMMA, or normal growth media. Immediately prior to imaging, cells were preloaded with Calcium Green 1 AM (CG, C3012; Life Technologies) by transferring coverslips to a solution of 10|×M CG in 20% Pluronic F127 in DMSO (Life Technologies) made up in carbogenated (95% 02-5% C02) normal Krebs. The recipe for normal Krebs solution was (in mM) 124 NaCl, 25 NaHC03, 2 glucose, 3 KC1, 2 CaCl2, 1.5 NaH2P04, and 1 MgS04-7H20, which corrected to pH 7.4 with HCl. After incubation in the CG solution for 30 min, coverslips were transferred to carbogenated normal Krebs at 29° C.
Coverslips were transferred to a recording chamber on a fixed stage Zeiss Axioskop2 microscope equipped with a Perkin Elmer Ultra-view/Yokogawa C10 spinning disk laser confocal illuminator. Cells were illuminated with the 488 nm laser; CG-calcium fluorescence signals were collected at 509 nm. Cells were visualized with a X40 water immersion objective. Images were collected with a Hammamatsu Ocra-ER charge-coupled device camera. The confocal system, including image collection, was controlled by Perkin-Elmer Improvision software.
Cells on coverslips were constantly perfused with normal Krebs solution at 29° C. at a rate of 3 ml/min. After 10 min, the perfusion solution was switched to one containing 12 mM glucose and proportionally less sodium chloride to maintain osmolality. The 12 mM glucose challenge was applied for 5 min, followed by a 5 min washout period. Images of CG-labeled cells were collected continuously during the challenge period at a rate of 20/min, with each frame taking 1 s. Images were collected as TIFF stacks and processed using Nikon Elements AR software. Individual cells in the field were designated as regions of interest (ROI), and their fluorescence signal over time was captured. Background fluorescence was subtracted from the fluorescence signal of individual ROIs. The relative changes in cytoplasmic calcium in the cells were expressed as changes in fluorescence [(AF/F) %], where F is the intensity of the baseline fluorescence signal before stimulation and AF is the difference between the peak fluorescence intensity and the baseline signal. Therefore, magnitude of response was normalized for each individual ROI.

[7] = test system: islets isolated from ZDF rats; conditions: islets from ZDF rats and clonal cells cultured in lipids; cited from earlier work
[8] = pretreated 18 h with I-NMMA plus IL-1β, 12 mM glucose

Structure (SMILES)	recovery of insulin secretion (832/13 cells [1]; IL-1β 1 ng/ml + I-NMMA 1 mM, 18 h)	IL-1β-induced synthesis and secretion of CCL2 with NOS inhibitor (CCL2)	IL-1β-induced CCL20 secretion with NOS inhibitor (CCL20)	IL-1β-induced nitrite production in presence of inhibitor (832/13 cells [2])	IL-1β-induced nitric oxide production in presence of inhibitor (832/13 cells [3])	IL-1β-induced decrease in MTS reduction with NOS inhibitor (832/13 cells [4])	IL-1β-induced decrease in oxygen consumption rate with NOS inhibitor (832/13 cells [5])	IL-1β-reduced change in intracellular calcium with NOS inhibitor (832/13 cells [6]; 1 mM I-NMMA)	magnitude of the response (832/13 cells [6]; [8])	number of responsive cells (832/13 cells [6]; [8])	responders and response magnitude relative to control pretreatment (832/13 cells [6]; pretreated with I-NMMA alone)	recovery of insulin secretion (832/13 cells [1]; IL-1β 18 h, 10 uM DMM during final 2 h)	insulin secretion [7]
CNC(=N)NCCC[C@H](N)C(=O)O [I-NMMA, N^G-monomethyl-L-arginine, reference compound]	almost complete recovery	not altered	not impacted	completely inhibited	lack of IL-Iβ-mediated elevations in nitric oxide formation	fully recovered	prevented	completely prevented	30%	89%	differed neither in the number of responders nor in the magnitude of the responses		
COC(=O)CC(O)C(=O)OC (stereo not shown) [dimethyl malate, reference compound]												could be recovered; also recorded: enhanced insulin secretion	improves insulin secretion

— patent publication US20190086390A1, “INDIRECT ASSESSMENT OF INSULIN RELEASE IN A CELL” (Board of Supervisors of Louisiana State University and …, priority 2016, published 2019)
